One molecule from ChEMBL document CHEMBL1144301, “Non-peptidic small molecule inhibitors of XIAP” (Bioorg Med Chem Lett, 2005) can be followed below.

As usually defined, the Kd is the equilibrium constant for the complex coming apart. A lower Kd goes with tighter binding.

This assay concerns the target E3 ubiquitin-protein ligase XIAP (Homo sapiens, UniProt P98170). Description: Dissociation constant against BIR3 domain of X-linked IAP in fluorescence polarization anisotropy competition assay. Background: Fluorescence polarisation rises when a labelled molecule tumbles more slowly, as on binding a larger partner.

Sequence of E3 ubiquitin-protein ligase XIAP (P98170 whole entry, the tested form may be a part): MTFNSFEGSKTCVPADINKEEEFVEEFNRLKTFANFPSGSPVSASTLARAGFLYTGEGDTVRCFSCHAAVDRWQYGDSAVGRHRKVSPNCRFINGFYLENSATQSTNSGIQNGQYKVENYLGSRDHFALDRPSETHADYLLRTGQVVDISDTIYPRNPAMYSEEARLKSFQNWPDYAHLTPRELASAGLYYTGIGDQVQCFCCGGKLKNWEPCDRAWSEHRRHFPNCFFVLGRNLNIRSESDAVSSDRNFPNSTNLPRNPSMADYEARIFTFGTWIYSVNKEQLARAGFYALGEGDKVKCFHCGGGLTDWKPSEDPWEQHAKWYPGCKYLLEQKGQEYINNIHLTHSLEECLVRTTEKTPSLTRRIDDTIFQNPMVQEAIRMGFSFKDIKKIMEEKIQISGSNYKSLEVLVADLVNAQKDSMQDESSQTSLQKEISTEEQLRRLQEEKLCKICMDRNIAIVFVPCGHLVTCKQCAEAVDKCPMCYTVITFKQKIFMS

Molecule `C[C@H](N)C(=O)Nc1nc(-c2cccc(Cc3ccccc3)c2)c(Cc2ccccc2)s1` returned a dissociation constant (Kd) of over 100 µM.
